Active and inactive are the calls of the source.
What was measured:
[1] = target: T1, Fatty acid synthase (Homo sapiens, UniProt P49327); assay: inhibition of human FAS-TE enzyme activity – biochemical, kinetic fluorescence intensity, dose response (AID 624326); assay type: functional;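 note: rate of fluorescence rise from hydrolysis of a fluorogenic O-methyl fluorescein ester substrate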
[2] = target: T1, Fatty acid synthase; assay: inhibition of human FAS-TE enzyme activity – biochemical, endpoint fluorescence intensity, uHTS hits, dose response (AID 624327); assay type: functional;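 note: fluorescence from hydrolysis of an O-methyl fluorescein acyl ester substrate by the enzyme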
[3] = tested on: P388; assay: cells; assay type: functional; conditions: Mus musculus
[4] = tested on: P388/ADR; assay: cells; assay type: functional; conditions: Mus musculus
[5] = tested on: SN12K1; assay: cells; assay type: functional; conditions: Homo sapiens
[6] = target: Protein Wnt-3a (Mus musculus, UniProt P27467); assay: antagonism of Wnt3a pathway luciferase reporter – Wnt-LIGHT cells, luminescence, selectivity assay for Gli-SUFU antagonist project, dose response (AID 651570); assay type: functional; conditions: read-out: IC50_Mean;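 note: Wnt-LIGHT reporter cells stimulated with conditioned medium from Wnt3a-producing cells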
[7] = tested on: INS1; assay: INS-1E survival protection against cytokine death – cell-based, luminescence, retest, dose response (AID 449756); assay type: functional; conditions: Rattus norvegicus;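 note: cell death triggered by IL-1 beta plus TNF-alpha plus IFN-gamma mixture; protective hits raise ATP signal compared with cytokine alone wells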
[8] = non-specific 3'UTR reporter inhibition in Clone20-Shn3RL – cell-based, Renilla luciferase, cherry-picked, counter-screen for Shn3 inhibitor project, dose response (AID 624133); assay type: functional
[9] = loss of viability in HepG2 cells – cell-based, CellTiter-Glo, cherry-picked, cytotoxicity control for Shn3 inhibitor project, dose response (AID 624134); assay type: functional
[10] = reduction of Shn3 3'UTR-driven luciferase in osteoblasts – cell-based, Clone20 osteoblasts, firefly luciferase, cherry-picked, dose response (AID 624132); assay type: functional;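 note: firefly luciferase luminescence from reporter carrying the Shn3 3'UTR in osteoblasts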
[11] = Luminescence Cell-Based Dose Retest to Confirm Inhibitors of Cancer Stem Cells. [Related pubchem assays (depositor defined):AID2717, AID2721]; assay type: functional; conditions: Homo sapiens
[12] = HEK-293T viability loss after treatment – luminescence, T-cell screen hits, cytotoxicity control for TCR NF-kB inhibitor project, dose response (AID 489026); assay type: functional, cell-based;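 note: cells exposed to compound about 14 hours before the viability readout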
[13] = alpha-synuclein stem-loop luciferase translation blockers – H4 neuroglioma cells, luminescence, confirmation (AID 1988); assay type: functional, cell-based
[14] = luciferase reporter signal suppression in cells – H4 neuroglioma cells, luminescence, dose response (AID 1990); assay type: functional, cell-based
[15] = Luminescence Cell-Based Dose Response HTS to Identify Inhibitors of 5'UTR Stem-Loop Driven Prion Protein mRNA Translation in H4 Neuroglioblastoma Cells. [Related pubchem assays: 1827 (Project Summary), 1813 (Primary HTS)]; assay type: functional
[16] = tested on: Vero; assay: viability of Vero cells under compound – cytotoxicity control for flavivirus capping enzyme inhibitors (AID 588742); assay type: functional; conditions: Chlorocebus sabaeus
[17] = target: Heat shock protein HSP 90-alpha (Homo sapiens, UniProt P07900); assay type: functional, organism-based
[18] = target: T2, Protein skinhead-1 (Caenorhabditis elegans, UniProt P34707); assay type: functional
T2 sequence (P34707 whole entry): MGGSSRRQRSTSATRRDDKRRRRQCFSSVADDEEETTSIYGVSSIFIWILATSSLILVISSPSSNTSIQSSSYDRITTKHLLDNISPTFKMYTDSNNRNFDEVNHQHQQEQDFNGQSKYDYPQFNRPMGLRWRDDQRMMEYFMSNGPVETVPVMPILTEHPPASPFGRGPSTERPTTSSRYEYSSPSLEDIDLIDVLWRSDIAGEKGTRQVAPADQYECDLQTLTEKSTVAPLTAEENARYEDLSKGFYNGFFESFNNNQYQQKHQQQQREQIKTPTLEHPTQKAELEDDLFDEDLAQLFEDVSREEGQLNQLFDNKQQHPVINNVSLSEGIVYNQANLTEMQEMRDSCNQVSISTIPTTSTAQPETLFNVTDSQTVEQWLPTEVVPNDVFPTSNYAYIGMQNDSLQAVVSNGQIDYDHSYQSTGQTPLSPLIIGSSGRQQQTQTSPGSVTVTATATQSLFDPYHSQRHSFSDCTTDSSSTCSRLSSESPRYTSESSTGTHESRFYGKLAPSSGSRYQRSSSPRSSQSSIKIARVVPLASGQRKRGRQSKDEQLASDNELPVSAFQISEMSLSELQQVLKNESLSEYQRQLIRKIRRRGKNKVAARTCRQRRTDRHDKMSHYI

[19] = HIV-1 AD8 envelope cell-cell fusion blockers – cherry-pick, dose response (AID 652062); assay type: functional, cell-based;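 note: luciferase signal from cell-cell fusion driven by HIV-1 clade B AD8 Env; potency is for inhibitors of fusion seen as a drop in luminescence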

T1 sequence (P49327 whole entry): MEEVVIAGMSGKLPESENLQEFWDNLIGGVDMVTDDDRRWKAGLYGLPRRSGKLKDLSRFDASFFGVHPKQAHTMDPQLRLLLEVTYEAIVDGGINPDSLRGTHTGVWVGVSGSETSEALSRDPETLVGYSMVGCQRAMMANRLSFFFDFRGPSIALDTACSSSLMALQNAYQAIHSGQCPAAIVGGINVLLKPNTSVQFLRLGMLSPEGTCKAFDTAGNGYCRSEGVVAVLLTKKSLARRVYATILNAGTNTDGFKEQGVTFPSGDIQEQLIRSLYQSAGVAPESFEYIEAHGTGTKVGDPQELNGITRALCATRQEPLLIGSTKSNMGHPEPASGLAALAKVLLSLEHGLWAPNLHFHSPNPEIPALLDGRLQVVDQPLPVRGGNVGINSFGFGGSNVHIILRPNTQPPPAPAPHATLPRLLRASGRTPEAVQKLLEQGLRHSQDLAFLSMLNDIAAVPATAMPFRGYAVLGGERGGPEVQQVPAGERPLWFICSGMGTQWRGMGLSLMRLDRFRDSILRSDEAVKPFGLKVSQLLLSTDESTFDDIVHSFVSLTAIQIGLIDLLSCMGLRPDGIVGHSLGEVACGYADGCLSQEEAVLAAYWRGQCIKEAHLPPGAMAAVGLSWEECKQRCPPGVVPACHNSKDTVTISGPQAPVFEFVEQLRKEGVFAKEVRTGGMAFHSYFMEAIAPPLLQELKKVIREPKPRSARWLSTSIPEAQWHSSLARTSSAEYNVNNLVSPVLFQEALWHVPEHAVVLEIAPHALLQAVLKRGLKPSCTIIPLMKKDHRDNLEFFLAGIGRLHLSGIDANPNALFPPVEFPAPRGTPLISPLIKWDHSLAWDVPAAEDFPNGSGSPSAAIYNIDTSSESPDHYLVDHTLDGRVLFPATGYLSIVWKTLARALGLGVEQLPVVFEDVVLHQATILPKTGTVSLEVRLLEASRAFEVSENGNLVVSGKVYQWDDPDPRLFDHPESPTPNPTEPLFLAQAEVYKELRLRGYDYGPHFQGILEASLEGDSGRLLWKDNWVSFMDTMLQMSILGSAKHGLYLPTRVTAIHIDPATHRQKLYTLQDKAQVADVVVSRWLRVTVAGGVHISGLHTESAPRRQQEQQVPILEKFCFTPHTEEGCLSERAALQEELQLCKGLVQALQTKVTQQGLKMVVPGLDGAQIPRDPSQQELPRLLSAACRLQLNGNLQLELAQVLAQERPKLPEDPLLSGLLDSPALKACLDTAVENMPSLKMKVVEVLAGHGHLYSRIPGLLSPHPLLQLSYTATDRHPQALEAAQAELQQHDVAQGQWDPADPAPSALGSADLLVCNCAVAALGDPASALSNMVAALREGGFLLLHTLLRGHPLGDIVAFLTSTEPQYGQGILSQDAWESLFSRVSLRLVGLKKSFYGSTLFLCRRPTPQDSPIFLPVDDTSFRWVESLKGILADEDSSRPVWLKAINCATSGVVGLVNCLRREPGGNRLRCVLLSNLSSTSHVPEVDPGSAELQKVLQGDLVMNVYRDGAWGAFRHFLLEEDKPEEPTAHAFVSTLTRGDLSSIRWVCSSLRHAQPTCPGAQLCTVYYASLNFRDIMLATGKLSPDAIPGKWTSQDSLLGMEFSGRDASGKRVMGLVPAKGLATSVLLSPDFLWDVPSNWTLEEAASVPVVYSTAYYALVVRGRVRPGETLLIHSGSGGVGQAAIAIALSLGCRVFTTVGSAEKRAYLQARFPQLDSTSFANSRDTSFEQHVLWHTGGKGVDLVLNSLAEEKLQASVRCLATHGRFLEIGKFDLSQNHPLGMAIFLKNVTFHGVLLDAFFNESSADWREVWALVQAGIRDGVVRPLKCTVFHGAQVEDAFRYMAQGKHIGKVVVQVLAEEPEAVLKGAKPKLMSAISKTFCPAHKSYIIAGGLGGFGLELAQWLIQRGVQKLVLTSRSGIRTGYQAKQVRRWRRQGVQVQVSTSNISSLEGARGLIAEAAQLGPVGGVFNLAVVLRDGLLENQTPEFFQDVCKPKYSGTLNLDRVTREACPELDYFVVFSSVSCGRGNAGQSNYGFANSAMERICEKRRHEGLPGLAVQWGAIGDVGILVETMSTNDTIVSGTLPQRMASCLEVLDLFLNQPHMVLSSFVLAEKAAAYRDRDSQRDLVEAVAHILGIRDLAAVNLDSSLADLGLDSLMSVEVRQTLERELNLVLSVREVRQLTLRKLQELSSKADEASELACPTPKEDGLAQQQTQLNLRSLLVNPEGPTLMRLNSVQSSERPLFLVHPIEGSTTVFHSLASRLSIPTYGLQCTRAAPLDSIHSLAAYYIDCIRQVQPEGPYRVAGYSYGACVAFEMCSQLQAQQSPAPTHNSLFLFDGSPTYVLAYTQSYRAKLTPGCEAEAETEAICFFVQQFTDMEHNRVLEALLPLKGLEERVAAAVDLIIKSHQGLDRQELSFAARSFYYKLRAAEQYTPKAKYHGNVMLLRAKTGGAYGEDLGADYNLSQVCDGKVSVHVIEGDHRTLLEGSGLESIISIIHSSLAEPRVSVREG
Sequence of Protein Wnt-3a (P27467 whole entry): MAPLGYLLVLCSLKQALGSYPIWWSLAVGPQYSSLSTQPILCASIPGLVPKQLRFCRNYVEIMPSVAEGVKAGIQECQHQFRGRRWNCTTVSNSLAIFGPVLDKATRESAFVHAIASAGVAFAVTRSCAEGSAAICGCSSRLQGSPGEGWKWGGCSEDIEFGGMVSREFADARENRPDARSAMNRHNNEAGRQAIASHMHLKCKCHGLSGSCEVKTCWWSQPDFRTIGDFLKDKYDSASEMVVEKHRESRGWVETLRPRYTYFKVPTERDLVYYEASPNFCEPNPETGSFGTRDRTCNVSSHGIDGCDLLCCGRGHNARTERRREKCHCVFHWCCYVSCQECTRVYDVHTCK

With O=[N+]([O-])c1ccc(C(O)C(CO)N=C(S)Nc2ccccc2)cc1 (stereo unspecified) the IC50 [1] was 24.8 µM (inactive) and the IC50 [2] was 20.8 µM (inactive).

For O=C(NC(Cc1ccc(Br)cc1)C(=O)O)c1ccc(I)cc1 (stereo unspecified), the GI50 [3] was > 80.9 µM (inactive), the GI50 [4] was > 66.1 µM (inactive) and the GI50 [5] was > 100 µM (inactive).

With COC(=O)NC1C(C)OC(OC2C/C=C(/C)C3C=CC4C(OC5CC(OC6CC(O)C(OC7CC(O)C(OC)C(C)O7)C(C)O6)C(O)C(C)O5)C(C)CC(C)C4C3(C)C(=O)C3=C(O)C4(CC(C)C(CO)=CC4/C=C\2C)OC3=O)CC1(C)[N+](=O)[O-] (stereo unspecified) the GI50 [3] was 3.55 µM (inactive), the GI50 [4] was 5.56 µM (inactive) and the GI50 [5] was 6.21 µM (inactive).

With Cc1c(C(C)C)c(=O)n(-c2ccc(S(=O)(=O)NCc3ccccc3)cc2)n1C the IC50 [6] was 5.02 µM (active), the AC50 [7] was 2.71 µM (active) and the AC50 [8] was 1.96 µM (active). For the same compound, the AC50 [9] was 2.48 µM (active) and the AC50 [10] was 1.18 µM (active).

For O=S(=O)(O)c1cc(S(=O)(=O)O)c2cc(/N=N/c3ccc(/N=N/c4ccc(/C=C/c5ccc(/N=[N+](/[O-])c6ccc(/C=C/c7ccc(/N=N/c8ccc(/N=N/c9ccc%10cc(S(=O)(=O)O)cc(S(=O)(=O)O)c%10c9)cc8)cc7S(=O)(=O)O)c(S(=O)(=O)O)c6)cc5S(=O)(=O)O)c(S(=O)(=O)O)c4)cc3)ccc2c1, the GI50 [3] was 14.7 µM (inactive) and the GI50 [5] was > 95.1 µM (inactive).

In the case of Cc1ccc([N+](=O)[O-])cc1NC(=O)CCc1ccccc1, the IC50 [1] is reported as 17.5 µM (active) and the IC50 [2] is reported as 14 µM (active).

With O=C1CC(c2cc(Br)ccc2F)c2cc3c(cc2N1)CCC3 (stereo unspecified) the AC50 [11] was < 0.16 µM (active), the IC50 [12] was > 80 µM (inactive) and the EC50 [13] was 1.48 µM (inconclusive). The EC50 [14] was 7.6 µM (active) and the EC50 [15] was 2.01 µM (active).

For CCN1C(=O)/C(=C/C=C2\C=CN(CC)c3ccccc32)SC1=S, the CC50 [16] was > 40 µM (active).

In the case of C=CCn1c(C)cc(C(=O)CSc2nc(O)c3ccccc3n2)c1C, the AC50 [17] is reported as 2.6 µM (active).

With COC(=O)c1ccc(CSc2nc3ccccc3o2)cc1 the IC50 [18] was 41.7 µM (active).

For COc1ccc(OCC(=O)Nc2ccccc2N2CCCCC2)cc1, the IC50 [12] was > 80 µM (inactive) and the AC50 [19] was 33.4 µM (active).

In the case of O=NN(CCCl)C(=O)N[C@H]1CC[C@H](CC(=O)O)CC1, the GI50 [3] is reported as 3.73 µM (inactive), the GI50 [4] is reported as 3.97 µM (inactive) and the GI50 [5] is reported as 69 µM (inactive).

For O=C(O)c1ccc(S(=O)(=O)c2ccccc2)cc1, the IC50 [18] was > 100 µM (inactive).
